Test results published in ChEMBL document CHEMBL5252651, “Discovery of Bioactive Metabolites by Acidic Stress to a Geldanamycin Producer, Streptomyces samsunensis” (J Nat Prod, 2023).
Calls of active or inactive are those of the source. The calls are words filed in the database; no cut-off is given here.

Test system: Staphylococcus aureus
Experiment: Antivirulence activity against methicillin-resistant Staphylococcus aureus USA300 LAC assessed as change in Hla transcriptional level at 10 ug/ml incubated for 8 to 16 hrs by qRT-PCR analysis
Assay type: functional, organism-based
Conditions: dose 10.0 µg/ml, time 8-16 hrs

Structure (SMILES)	Activity
CO[C@@H](C[C@H](C)Cc1cc(O)cc(NC(C)=O)c1)[C@H](O)[C@H](C)C(=O)O	inactive
CO[C@H]1/C=C\C=C(/C)C(=O)NC2=CC(=O)C(O)=C(C[C@@H](C)C[C@H](OC)[C@H](O)[C@@H](C)/C=C(\C)[C@@H]1OC(N)=O)C2=O	inactive
COC1=C2C[C@@H](C)C[C@H](OC)[C@H](O)[C@@H](C)/C=C(\C)[C@H](OC(N)=O)[C@@H](OC)/C=C\C=C(/C)C(=O)NC(=CC1=O)C2=O	inactive
